The experiment concerns MOLM-13 cells. Put plainly: MOLM-13 Cell Proliferation Assay (indicator of DHODH inhibition). It is filed as cell-based. To be noted: Homo sapiens, 72 Hours of culture, CellTiter-Glo, no uridine. An outline of the steps:
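Low-passage MOLM-13 cells (10^4/well) in RPMI 1640 + 10% FBS exposed to compound (0.5% DMSO final) for 72 h at 37 °C, 5% CO2. Viability read by CellTiter-Glo luminescence; growth reflects de novo pyrimidine synthesis dependent on DHODH.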
On the technique in general: Cellular ATP, detected with luciferase, serves as a proxy for viable cell number.
`FC(F)(F)c1cc(C(F)(F)F)nc(N2CCc3c([nH]c4ccc(-n5nccn5)cc34)[C@@H]2c2ccc(N3CCOCC3)nc2)n1` [Compound 485, (1S)-2-[4,6-bis(trifluoromethyl)pyrimidin-2-yl]-1-[6-(morpholin-4-yl)pyridin-3-yl]-6-(2H-1,2,3-triazol-2-yl)-2,3,4,9-tetrahydro-1H-pyrido[3,4-b]indole] returned an IC50 of 0.6 nM. As to `FC(F)(F)c1nc(N2CCc3c([nH]c4ccc(-n5nccn5)cc34)[C@@H]2c2ccc(N3CCOCC3)nc2)nc(C(F)(F)F)n1` [Compound 486, (1S)-2-[4,6-bis(trifluoromethyl)-1,3,5-triazin-2-yl]-1-[6-(morpholin-4-yl)pyridin-3-yl]-6-(2H-1,2,3-triazol-2-yl)-2,3,4,9-tetrahydro-1H-pyrido[3,4-b]indole], the IC50 was 0.4 nM. With `FC(F)(F)c1cc(C(F)(F)F)nc(N2CCc3c([nH]c4ccc(Br)cc34)[C@@H]2c2ccc(N3CCOCC3)nc2)n1` [Compound 487, (1S)-2-[4,6-bis(trifluoromethyl)pyrimidin-2-yl]-6-bromo-1-[6-(morpholin-4-yl)pyridin-3-yl]-2,3,4,9-tetrahydro-1H-pyrido[3,4-b]indole] the figure was 0.2 nM; with `CN1CCN(c2ncc([C@H]3c4[nH]c5ccc(Cl)cc5c4CCN3c3ncnc(C(F)(F)F)n3)cn2)CC1` [Compound 488, (1S)-6-chloro-1-[2-(4-methylpiperazin-1-yl)pyrimidin-5-yl]-2-[4-(trifluoromethyl)-1,3,5-triazin-2-yl]-2,3,4,9-tetrahydro-1H-pyrido[3,4-b]indole], 5.3 nM. The molecule `CSc1nc(N2CCc3c([nH]c4ccc(Cl)cc34)[C@@H]2c2ccc(N3CCN(C)CC3)nc2)nc(C(F)(F)F)n1` [Compound 489, (1S)-6-chloro-1-[6-(4-methylpiperazin-1-yl)pyridin-3-yl]-2-[4-(methylsulfanyl)-6-(trifluoromethyl)-1,3,5-triazin-2-yl]-2,3,4,9-tetrahydro-1H-pyrido[3,4-b]indole] displayed an IC50 of 1.6 nM. Molecule `Cc1ccc(C2c3[nH]c4ccc(F)cc4c3CCN2c2nc(C(F)(F)F)cc(C(F)(F)F)n2)c(F)c1F` (stereo not shown) [Compound 490, 2-[4,6-bis(trifluoromethyl)pyrimidin-2-yl]-1-(2,3-difluoro-4-methylphenyl)-6-fluoro-2,3,4,9-tetrahydro-1H-pyrido[3,4-b]indole] registered an IC50 of 2.8 nM. `CN1CCN(c2ccc([C@H]3c4[nH]c5ccc(Cl)cc5c4CCN3c3ncnc(C(F)(F)F)n3)cn2)CC1` [Compound 491, (1S)-6-chloro-1-[6-(4-methylpiperazin-1-yl)pyridin-3-yl]-2-[4-(trifluoromethyl)-1,3,5-triazin-2-yl]-2,3,4,9-tetrahydro-1H-pyrido[3,4-b]indole] registered an IC50 of 2.2 nM.

As to `Cc1ccc(C2c3[nH]c4ccc(F)cc4c3CCN2c2nc(C(F)(F)F)nc(C(F)(F)F)n2)c(F)c1F` (stereo not shown) [Compound 492, 2-[4,6-bis(trifluoromethyl)-1,3,5-triazin-2-yl]-1-(2,3-difluoro-4-methylphenyl)-6-fluoro-2,3,4,9-tetrahydro-1H-pyrido[3,4-b]indole], it took 3.2 nM to reach half-maximal inhibition (IC50).

Regarding `Cc1ccc(C2c3[nH]c4ccc(F)cc4c3CCN2c2nccc(C(F)(F)F)n2)c(F)c1F` (stereo not shown) [Compound 493, 1-(2,3-difluoro-4-methylphenyl)-6-fluoro-2-[4-(trifluoromethyl)pyrimidin-2-yl]-2,3,4,9-tetrahydro-1H-pyrido[3,4-b]indole], the IC50 is 25 nM. As to `Cc1ccc(C2c3[nH]c4ccc(F)cc4c3CCN2c2ncnc(C(F)(F)F)n2)c(F)c1F` (stereo not shown) [Compound 494, 1-(2,3-difluoro-4-methylphenyl)-6-fluoro-2-[4-(trifluoromethyl)-1,3,5-triazin-2-yl]-2,3,4,9-tetrahydro-1H-pyrido[3,4-b]indole], the IC50 amounted to 12 nM. In turn, `CSc1nc(N2CCc3c([nH]c4ccc(F)cc34)C2c2ccc(C)c(F)c2F)nc(C(F)(F)F)n1` (stereo not shown) [Compound 495, 1-(2,3-difluoro-4-methylphenyl)-6-fluoro-2-[4-(methylsulfanyl)-6-(trifluoromethyl)-1,3,5-triazin-2-yl]-2,3,4,9-tetrahydro-1H-pyrido[3,4-b]indole] had an IC50 of 8.8 nM. `CC1(C)CN(c2ncc([C@H]3c4[nH]c5ccc(Cl)cc5c4CCN3c3nc(C(F)(F)F)cc(C(F)(F)F)n3)cn2)CCN1` [Compound 496, (1S)-2-[4,6-bis(trifluoromethyl)pyrimidin-2-yl]-6-chloro-1-[2-(3,3-dimethylpiperazin-1-yl)pyrimidin-5-yl]-2,3,4,9-tetrahydro-1H-pyrido[3,4-b]indole] returned an IC50 of 2.8 nM. With `Cc1ccc(C2c3[nH]c4ccc(Cl)cc4c3CCN2c2nc(C(F)(F)F)nc(C(F)(F)F)n2)c(F)c1F` (stereo not shown) [Compound 497, 2-[4,6-bis(trifluoromethyl)-1,3,5-triazin-2-yl]-6-chloro-1-(2,3-difluoro-4-methylphenyl)-2,3,4,9-tetrahydro-1H-pyrido[3,4-b]indole] the figure was 0.2 nM; with `FC(F)(F)c1ncnc(N2CCc3c([nH]c4ccc(-n5nccn5)cc34)[C@@H]2c2ccc(N3CCOCC3)nc2)n1` [Compound 498, (1S)-1-[6-(morpholin-4-yl)pyridin-3-yl]-6-(2H-1,2,3-triazol-2-yl)-2-[4-(trifluoromethyl)-1,3,5-triazin-2-yl]-2,3,4,9-tetrahydro-1H-pyrido[3,4-b]indole], 0.7 nM. With `CN1CCN(c2ncc([C@H]3c4[nH]c5ccc(Br)cc5c4CCN3c3nc(C(F)(F)F)cc(C(F)(F)F)n3)cn2)CC1` [Compound 499, (1S)-2-[4,6-bis(trifluoromethyl)pyrimidin-2-yl]-6-bromo-1-[2-(4-methylpiperazin-1-yl)pyrimidin-5-yl]-2,3,4,9-tetrahydro-1H-pyrido[3,4-b]indole], the IC50 came to 0.3 nM. The molecule `CN1CCN(c2ncc([C@H]3c4[nH]c5ccc(-n6nccn6)cc5c4CCN3c3nc(C(F)(F)F)cc(C(F)(F)F)n3)cn2)CC1` [Compound 500, (1S)-2-[4,6-bis(trifluoromethyl)pyrimidin-2-yl]-1-[2-(4-methylpiperazin-1-yl)pyrimidin-5-yl]-6-(2H-1,2,3-triazol-2-yl)-2,3,4,9-tetrahydro-1H-pyrido[3,4-b]indole] came in with an IC50 of 0.8 nM.

Molecule `CN1CCN(c2ncc([C@H]3c4[nH]c5ccc(-n6nccn6)cc5c4CCN3c3nc(C(F)(F)F)nc(C(F)(F)F)n3)cn2)CC1` [Compound 501, (1S)-2-[4,6-bis(trifluoromethyl)-1,3,5-triazin-2-yl]-1-[2-(4-methylpiperazin-1-yl)pyrimidin-5-yl]-6-(2H-1,2,3-triazol-2-yl)-2,3,4,9-tetrahydro-1H-pyrido[3,4-b]indole] displayed an IC50 of 1.4 nM. Take `Cc1ccc(C2c3[nH]c4ccc(-n5nccn5)cc4c3CCN2c2nccc(C(F)(F)F)n2)c(F)c1F` (stereo not shown) [Compound 502, 1-(2,3-difluoro-4-methylphenyl)-6-(2H-1,2,3-triazol-2-yl)-2-[4-(trifluoromethyl)pyrimidin-2-yl]-2,3,4,9-tetrahydro-1H-pyrido[3,4-b]indole]: the IC50 was 2.1 nM. Consider `C[C@@H]1CN(c2ncc([C@H]3c4[nH]c5ccc(Cl)cc5c4CCN3c3nc(C(F)(F)F)cc(C(F)(F)F)n3)cn2)C[C@H](C)N1` [Compound 503, (1S)-2-[4,6-bis(trifluoromethyl)pyrimidin-2-yl]-6-chloro-1-{2-[(3R,5S)-3,5-dimethylpiperazin-1-yl]pyrimidin-5-yl}-2,3,4,9-tetrahydro-1H-pyrido[3,4-b]indole], for which 7.3 nM corresponded to half-maximal inhibition (IC50). With `COC(=O)c1nc(N2CCc3c([nH]c4ccc(Cl)cc34)[C@@H]2c2ccc(C)c(F)c2F)nc(C(F)(F)F)n1` [Compound 504, methyl 4-[(1S)-6-chloro-1-(2,3-difluoro-4-methylphenyl)-1,3,4,9-tetrahydro-2H-pyrido[3,4-b]indol-2-yl]-6-(trifluoromethyl)-1,3,5-triazine-2-carboxylate] the figure was 30.6 nM; with `Cc1ccc([C@H]2c3[nH]c4ccc(Cl)cc4c3CCN2c2nc(C(F)(F)F)nc(C(Cl)(Cl)Cl)n2)c(F)c1F` [Compound 505, (1S)-6-chloro-1-(2,3-difluoro-4-methylphenyl)-2-[4-(trichloromethyl)-6-(trifluoromethyl)-1,3,5-triazin-2-yl]-2,3,4,9-tetrahydro-1H-pyrido[3,4-b]indole], 1.5 nM; with `CN1CCN(c2ncc([C@H]3c4[nH]c5ccc(-n6nccn6)cc5c4CCN3c3ncnc(C(F)(F)F)n3)cn2)CC1` [Compound 506, (1S)-1-[2-(4-methylpiperazin-1-yl)pyrimidin-5-yl]-6-(2H-1,2,3-triazol-2-yl)-2-[4-(trifluoromethyl)-1,3,5-triazin-2-yl]-2,3,4,9-tetrahydro-1H-pyrido[3,4-b]indole], 5.7 nM. With `FC(F)c1nc(N2CCc3c([nH]c4ccc(Cl)cc34)[C@@H]2c2cnc(N3CCOCC3)nc2)nc(C(F)(F)F)n1` [Compound 507, (1S)-6-chloro-2-[4-(difluoromethyl)-6-(trifluoromethyl)-1,3,5-triazin-2-yl]-1-[2-(morpholin-4-yl)pyrimidin-5-yl]-2,3,4,9-tetrahydro-1H-pyrido[3,4-b]indole] the figure was 0.6 nM; with `CN1CCN(c2ncc([C@H]3c4[nH]c5ccc(Cl)cc5c4CCN3c3nc(C(F)F)nc(C(F)(F)F)n3)cn2)CC1` [Compound 508, (1S)-6-chloro-2-[4-(difluoromethyl)-6-(trifluoromethyl)-1,3,5-triazin-2-yl]-1-[2-(4-methylpiperazin-1-yl)pyrimidin-5-yl]-2,3,4,9-tetrahydro-1H-pyrido[3,4-b]indole], 0.8 nM; with `CN1CCN(c2ncc([C@H]3c4[nH]c5ccc(Cl)cc5c4CCN3c3nc(N4CCOCC4)nc(C(F)(F)F)n3)cn2)CC1` [Compound 509, (1S)-6-chloro-1-[2-(4-methylpiperazin-1-yl)pyrimidin-5-yl]-2-[4-(morpholin-4-yl)-6-(trifluoromethyl)-1,3,5-triazin-2-yl]-2,3,4,9-tetrahydro-1H-pyrido[3,4-b]indole], 8.1 nM.

What is called IC50 is the point on the concentration scale where inhibition reaches its midpoint. A low value points to greater potency.
